Measurements reported in PMC6956242 (Journal of Medicinal Chemistry, 2019).
Where two headings read alike, the source gives them in different places. The star is where a group is joined. Biotin = O=C1N[C@H]2[C@H](CS[C@H]2CCCCC(=O)*)N1

T1: His6-RORγt-LBD (Homo sapiens, UniProt P51449)
T1 sequence (P51449 265-518): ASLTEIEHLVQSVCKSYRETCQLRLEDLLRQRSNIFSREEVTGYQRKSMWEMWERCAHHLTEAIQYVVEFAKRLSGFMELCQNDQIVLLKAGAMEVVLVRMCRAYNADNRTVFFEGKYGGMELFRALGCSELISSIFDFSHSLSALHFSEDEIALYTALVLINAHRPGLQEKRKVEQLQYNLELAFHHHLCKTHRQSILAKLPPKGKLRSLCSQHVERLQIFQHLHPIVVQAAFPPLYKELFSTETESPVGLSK

T2: His6-RORγt-LBD (human retinoic acid receptor-related orphan receptor γt ligand binding domain, residues … (human, UniProt P51449-1 265-518))
T2 sequence (looked up): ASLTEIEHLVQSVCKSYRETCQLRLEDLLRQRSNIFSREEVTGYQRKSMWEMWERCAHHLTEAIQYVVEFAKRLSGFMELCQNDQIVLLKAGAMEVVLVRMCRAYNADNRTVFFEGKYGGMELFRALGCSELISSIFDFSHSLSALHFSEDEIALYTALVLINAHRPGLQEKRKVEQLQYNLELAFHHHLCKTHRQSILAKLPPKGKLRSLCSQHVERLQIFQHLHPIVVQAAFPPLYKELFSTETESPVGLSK

B1: N-terminal biotinylated SRC-1 box2 peptide (peptide)
peptide: Biotin-PSSHSSLTARHKILHRLLQEGSPSD-NH2
SMILES: CC[C@H](C)[C@H](NC(=O)[C@H](CCCCN)NC(=O)[C@H](Cc1c[nH]cn1)NC(=O)[C@H](CCCNC(=N)N)NC(=O)[C@H](C)NC(=O)[C@@H](NC(=O)[C@H](CC(C)C)NC(=O)[C@H](CO)NC(=O)[C@H](CO)NC(=O)[C@H](Cc1c[nH]cn1)NC(=O)[C@H](CO)NC(=O)[C@H](CO)NC(=O)[C@@H]1CCCN1C(=O)CCCC[C@@H]1SC[C@@H]2NC(=O)N[C@@H]21)[C@@H](C)O)C(=O)N[C@@H](CC(C)C)C(=O)N[C@@H](Cc1c[nH]cn1)C(=O)N[C@@H](CCCNC(=N)N)C(=O)N[C@@H](CC(C)C)C(=O)N[C@@H](CC(C)C)C(=O)N[C@@H](CCC(N)=O)C(=O)N[C@@H](CCC(=O)O)C(=O)NCC(=O)N[C@@H](CO)C(=O)N1CCC[C@H]1C(=O)N[C@@H](CO)C(=O)N[C@@H](CC(=O)O)C(N)=O

Columns and labels:
Plasma protein binding = assay type: in vitro ADME; conditions: 5 μM, equilibrium dialysis 6 h, 37 °C
Chemical stability = assay type: physicochemical; conditions: 2 μM, aqueous buffer pH 7.4
His6-RORγt-LBD [1] = target: T1, His6-RORγt-LBD
Plasma stability = assay type: in vitro ADME; conditions: 5 μM, 100% plasma, 1 h, 37 °C
[2] = Microsomal stability phase II; assay type: in vitro ADME, human; conditions: 5 μM, UDPGA, 1 h, 37 °C
PAMPA = assay type: in vitro ADME; conditions: 500 μM donor, 20 h
His6-RORγt-LBD [3] = target: T1, His6-RORγt-LBD; assay type: biochemical; conditions: for improvement in potency compared to phenyl 19: vs 19, coactivator recruitment IC50
[4] = target: T2, His6-RORγt-LBD (human retinoic acid …); test: AlphaScreen or HTRF

Molecule | plasma protein binding (% bound) (Plasma protein binding) | chemical stability (% remain) (Chemical stability) | plasma stability (% remain) (Plasma stability) | microsomal stability phase 2 (% remain) [2] | PAMPA (% flux) (PAMPA) | other results
O=C(O)c1ccc(NCc2c(-c3c(Cl)cccc3C(F)(F)F)noc2-c2cc[nH]c2)cc1 [compound 25, 4-[({3-[2-Chloro-6-(trifluoromethyl)phenyl]-5-(1H-pyrrol-3-yl)-1,2-oxazol-4-yl}methyl)amino]benzoic Acid] | 99.9 % bound | 95.3 % remain | 85.9 % remain | 69.8 % remain | 33.6 % flux | Hill slope (His6-RORγt-LBD [1]; 0 μM cholesterol): –0.77 ± 0.04; Hill slope (His6-RORγt-LBD [1]; 0.25 μM cholesterol): –0.86 ± 0.03; Hill slope (His6-RORγt-LBD [1]; 1.0 μM cholesterol): –1.01 ± 0.03; improvement in potency compared to phenyl 19 (His6-RORγt-LBD [3]): 36 fold
O=C(O)c1ccc(NCc2c(-c3c(Cl)cccc3C(F)(F)F)noc2-c2ccco2)cc1 [compound 23, 4-[({3-[2-Chloro-6-(trifluoromethyl)phenyl]-5-(furan-2-yl)-1,2-oxazol-4-yl}methyl)amino]benzoic Acid] | 100 % bound | 100 % remain | 86.5 % remain | 92.8 % remain | 50.4 % flux | improvement in potency compared to phenyl 19 (His6-RORγt-LBD [3]): 9 fold
O=C(O)c1ccc(NC(=O)c2c(-c3c(Cl)cccc3C(F)(F)F)noc2-c2ccccc2)cc1 [compound 8, 4-{3-[2-Chloro-6-(trifluoromethyl)phenyl]-5-phenyl-1,2-oxazole-4-amido}benzoic Acid] | 97.8 % bound | 95.4 % remain | 99.9 % remain | 100 % remain | 60.1 % flux | 
O=C(O)c1ccc(NCc2c(-c3c(Cl)cccc3C(F)(F)F)noc2-c2cccc3ccccc23)cc1 [compound 26, 4-[({3-[2-Chloro-6-(trifluoromethyl)phenyl]-5-(naphthalen-1-yl)-1,2-oxazol-4-yl}methyl)amino]benzoic Acid] |  |  |  |  |  | IC50 (TR-FRET coactivator recruitment) (His6-RORγt-LBD [3]; RORγt LBD, SRC-1 box2 peptide, triplicate): no IC50 curve could be fitted
C[C@H]1O[C@@H](O[C@H]2[C@@H](O)C[C@H](O[C@H]3[C@@H](O)C[C@H](O[C@H]4CC[C@@]5(C)[C@H](CC[C@@H]6[C@@H]5C[C@@H](O)[C@]5(C)[C@@H](C7=CC(=O)OC7)CC[C@]65O)C4)O[C@@H]3C)O[C@@H]2C)C[C@H](O)[C@@H]1O [compound 1, digoxin, reference compound] |  |  |  |  |  | Hill slope (His6-RORγt-LBD [1]; 0 μM cholesterol): –0.76 ± 0.05; Hill slope (His6-RORγt-LBD [1]; 0.25 μM cholesterol): –0.77 ± 0.03; Hill slope (His6-RORγt-LBD [1]; 1.0 μM cholesterol): –1.01 ± 0.06
O=C(O)c1ccc(-c2nn(C(=O)c3c(Cl)cccc3C(F)(F)F)c3ccccc23)cc1 [compound 3, MRL-871, reference compound] | 99.9 % bound | 81.0 % remain | 100 % remain | 47.1 % remain | 23.7 % flux | 
O=C(O)c1ccc(CNC(=O)c2c(-c3c(Cl)cccc3C(F)(F)F)noc2-c2ccccc2)cc1 [compound 18, 4-[({3-[2-Chloro-6-(trifluoromethyl)phenyl]-5-phenyl-1,2-oxazol-4-yl}formamido)methyl]benzoic Acid] |  |  |  |  |  | increase in potency compared to the initial hit (His6-RORγt-LBD [3]; vs 8, TR-FRET IC50): 6 fold
B1 |  |  |  |  |  | binding result [4]: binds
